Results reported in patent US20140336187A1, “METHODS FOR TREATING LEISHMANIASIS” (HOWARD UNIVERSITY, priority 2011, published 2014).
Several values for one entry are separate records, joined by “and”; a condition that tells them apart may be missing. Equal values may be shown once.

Key:
[1] = system: L. donovani promastigotes; assay: Antileishmanial activity on L. donovani promastigotes (resazurin cell viability assay); type: cell-based, Leishmania donovani; conditions: for IC50: L. donovani promastigotes, resazurin assay, 0.03 to 44 μM, means ± S.E. of three experiments, read-out: IC50 (μM) Promastigotes; for SI Values Promastigotes: SI = IC50 (mouse fibroblast) ÷ IC50 (promastigotes)
Experimental: Approximately 5×10^5 promastigotes/ml of L. donovani Khartum strain were inoculated into Yeager's Liver infusion tryptose (YLIT) medium or Brain Heart Infusion (BHI) broth (Difco), supplemented with glucose (2.5 mg/ml), 50 U/ml Pen-Strep and 0.005 mM Hemin at 25-26° C. and subcultured bi-weekly, Mikus et al., Parasitol Int., 48(3):265-9 (2000) (Mikus and Steverding, 2000).
(§1) The Leishmanicidal properties of fifteen naphthoquinone compounds (FIG. 1) on L. donovani promastigotes proliferation were assessed by the resazurin cell viability assay. Promastigotes from axenic culture were harvested during the exponential phase of growth (at least 5-day old culture), incubated at a concentration of 2×10^5 cells/200 μl with and without dilutions of compounds in 96-well microtitre plates. Dilutions of compounds covering 0.03 μM to 44 μM were prepared. […] 20 μl Alamar Blue (12.5 mg resazurin dissolved in 100 ml distilled water (Sigma #R7017)) (Mikes and Steverding, 2000) were added to each well and plates were incubated for another 2 hrs. […] Decrease in fluorescence (inhibition), were expressed as percentage of the fluorescence of control cultures and were plotted against the concentrations of compounds. The IC50 values were calculated from the sigmoidal inhibition curves.

L. donovani amastigotes = assay: Antileishmanial activity on L. donovani amastigotes (resazurin assay); type: cell-based, Leishmania donovani; conditions: for IC50: Leishmania donovani, L. donovani amastigotes, 48 hrs exposure, resazurin assay, means ± S.E., read-out: IC50 (μM) Amastigotes; for SI Values Amastigotes: SI = IC50 (mouse fibroblast) ÷ IC50 (amastigotes)
Experimental: Amastigotes were grown in MAA/20 medium (Amastigote medium consisted of: M199 medium supplemented with 0.5% Tryptone broth, 0.01 mM bathocuproinedisulfonic acid, 0.108 mM L-Cysteine, 15 mM D-glucose, 0.685 mM L-glutamine, and 0.025 mM Hemin and 20% fetal calf serum (FCS) at a pH of 5.5).
Amastigotes were plated at a concentration of 2×10^5 cells/[…] 24 hrs before treatment with various compounds. Amastigotes were treated with dilutions of compounds in 96-well microtitre plates. Dilutions of compounds ranging from 0.03 μM to 44 μM were prepared and added to amastigotes. Amastigotes were exposed to compounds for 48 hrs and were incubated at 37° C. […] After the incubation period, 20 μl Alamar Blue (12.5 mg resazurin dissolved in 100 ml distilled water) (Mikes and Steverding, 2000) were added to each well and plates were incubated for another 2 hrs. […] Decrease of fluorescence (inhibition) was expressed as percentage of the fluorescence of control cultures and was plotted against the concentrations of compounds. The IC50 values were calculated from the sigmoidal inhibition curves. Amphotericin B was used as a reference drug.

[2] = system: NIH 3T3 BALB/c mouse fibroblast cell line; assay: Cytotoxic assessment on NIH 3T3 BALB/c mouse fibroblasts (resazurin assay); conditions: read-out: IC50 (μM) Fibroblasts; NIH 3T3 BALB/c mouse fibroblasts; 48 hrs; resazurin assay; means ± S.E.
Experimental: Fibroblasts cells (4×10^4 cells/nil and adding 100 μl per well) were incubated with different concentrations of the naphthoquinone compounds (FIGS. 1) (3, 7, 13, 29, 33, and 44 μM) for 48 hrs after which viability of live fibroblast cells was determined by the Resazurin Method using a microplate reader (Bio-Tek Instruments EL311).
NIH 3T3 mouse fibroblasts were maintained in Roswell Park Memorial Institute (RPMI) medium supplemented with 10% Fetal calf serum, 50 units/ml penicillin, 50 units/ml streptomycin B in a humidified incubator at 37° C. in the presence of 5% CO2 (Scala et al., 2010).
Assays were performed to assess the cytotoxicity of these compounds in 96-well microtiter plates, with each well containing 100 μl of RPMI medium supplemented with 10% bovine calf scrum with 50 U/ml Pen-Strep. The cells were plated at a concentration of 4×10^3 cells/well (4×10^4 cells/ml). Fibroblast cells were then incubated with compounds for 48 hrs and inspected under an inverted microscope to assure growth of the controls and sterile conditions. 10 μl of resazurin solution (12.5 mg resazurin dissolved in 100 nil distilled water) were added to each well and the plates were incubated for another 2 hrs. The plates were read with a microplate reader at 570 nm. Experiments were done at least 3 times in triplicates (Scala et al., 2010).
Cell viability was determined using Resazurin Assay. The IC50 values were calculated and expressed as means±S.E (standard error).

[3] = system: L. donovani promastigotes; assay: Dose and time-dependent inhibitory effect on L. donovani promastigotes (2, 4, 6, 24 hours exposure); type: cell-based, Leishmania donovani; conditions: Leishmania donovani, promastigotes, means ± S.E.
Experimental: as §1
A time and dose-dependent inhibitory effect of all 15 imido-substituted naphthoquinone compounds was assessed on their activity on promastigotes of L. donovani. Promastigotes were plated in 96-well plates and incubated in different concentrations of each compound (0.03 to 44 μM), incubated for two hours and viabilities assayed by the resazurin assay. A two hour exposure was assessed by calculation of IC50 values of each compound. Values are means±S.E. (Standard Error).
(§2) A time and dose-dependent inhibitory effect of all 15 imido-substituted naphthoquinone compounds was assessed on their activity on promastigotes of L. donovani. Promastigotes were plated in 96-well plates and incubated in different concentrations of each compound (0.03 to 44 μM), incubated for four hours and cell viabilities assayed by the resazurin assay. A four hour exposure was assessed by calculation of IC50 values of each compound. Values are means±S.E. (Standard Error).
Promastigotes were plated in 96-well plates and incubated in different concentrations of each compound (0.03 to 44 μM), incubated for six hours and cell viabilities assayed by the resazurin assay. A six hour exposure was assessed by calculation of IC50 values of each compound. Values are means±S.E. (Standard error).
as §2, with “incubated for twenty four hours” for “incubated for four hours”, “assay. A twenty four hour” for “assay. A four hour”

[4] = read-out: Antileishmanial Activity IC50 (μM) 2 hours, 2 hours exposure
[5] = read-out: Antileishmanial Activity IC50 (μM) 4 hours, 4 hours exposure
[6] = 6 hours exposure, read-out: Antileishmanial Activity IC50 (μM) 6 hours
[7] = 24 hours exposure, read-out: Antileishmanial Activity IC50 (μM) 24 hours

| Compound | IC50 ([1]; Leishmania donovani) | SI Values Promastigotes [1] | melting point | IC50 (L. donovani amastigotes) | SI Values Amastigotes (L. donovani amastigotes) | IC50 [2] | IC50 [3, 4] | IC50 [3, 5] | IC50 [3, 6] | IC50 [3, 7] | IC50 [1] |
| --- | --- | --- | --- | --- | --- | --- | --- | --- | --- | --- | --- |
| O=C1C(Cl)=C(N(C(=O)c2ccc(Cl)cc2)C(=O)c2ccc(Cl)cc2)C(=O)c2ccccc21 [IMDNQ1, 4-Chloro-N-(4-chlorobenzoyl)-N-(3-chloro-1,4-dioxo-1,4-dihydronaphthalen-2-yl)-benzamide] | 1.84 ± 0.9 µM | 2.23±1.09 and 2.23 | 212 to 213 °C | 11.8 ± 9.7 µM | 0.35±0.42 and 0.35 | 4.1 ± 3.5 µM | 5.53 ± 0.3 µM | 1100 ± 50.3 µM | 19.2 ± 18.4 µM | 5.28 ± 1.8 µM | – |
| O=C1C(Cl)=C(N(C(=O)c2ccc(F)cc2)C(=O)c2ccc(F)cc2)C(=O)c2ccccc21 [IMDNQ3, N-(3-Chloro-1,4-dioxo-1,4-dihydronaphthalen-2-yl)-4-fluoro-N-(4-fluorobenzoyl)-benzamide] | 10.8 µM | 2.30±1.05 and 2.30 | 284 to 286 °C | 4.1 µM | 6.06±1.77 and 6.06 | 24.8 µM | 11 ± 12.9 µM | 41.35 ± 0.21 µM | 2.32 ± 1.9 µM | 3.23 ± 5.3 µM | – |
| O=C1C(Br)=C(N(C(=O)c2ccccc2Cl)C(=O)c2ccccc2Cl)C(=O)c2ccccc21 [IMDNQ5, N-(3-Bromo-1,4-dioxo-1,4-dihydronaphthalen-2-yl)-2-chloro-N-(2-chlorobenzoyl)-benzamide] | 31.3 µM | 0.15 and 0.15±0.3 | 232 to 234 °C | 4.67 µM | 1.01±0.21 and 1.01 | 4.7 µM | 19 ± 1.5 µM | 0.57 µM | 1.66 ± 0.5 µM | 5.85 ± 2.2 µM | – |
| COc1ccc(C(=O)N(C(=O)c2ccc(OC)cc2)C2=C(Cl)C(=O)c3ccccc3C2=O)cc1 [IMDNQ9, 2-bis-(4-methoxybenzoyl)amino-3-chloro-1,4-naphthoquinone] | 5.64 ± 0.9 µM | 0.60±0.08 and 0.60 | 283 to 287 °C | 4.67 ± 0.8 µM | 0.73±0.13 and 0.73 | 3.41 ± 1.1 µM | 77.3 ± 119 µM | 23.3 ± 9.2 µM | 123 ± 35.1 µM | 7.23 ± 0.7 µM | – |
| COc1cc(C(=O)N(C(=O)c2cc(OC)c(OC)c(OC)c2)C2=C(Cl)C(=O)c3ccccc3C2=O)cc(OC)c1OC [IMDNQ11, 2-bis-(3,4,5-trimethoxybenzoyl)amino-3-chloro-1,4-naphthoquinone] | 22.9 ± 0.9 µM | 0.28±0.01 and 0.28 | 171 to 172 °C | 27.3 µM | – | 6.41 ± 2.9 µM | 198 ± 16.8 µM | 22.7 ± 14.2 µM | 4.06 ± 1.4 µM | 8.82 ± 2 µM | 11.85 ± 0.001 µM |
